Data taken from US20240122865A1, “Methods of Protecting RNA” (Pfizer Inc., priority 2021, published 2024).

These compounds were tested on FgenL model RNA (assay: TapeStation Assay, FgenL model RNA). Conditions: FgenL RNA, 20 mM amino acids, 50 mM CAPS pH 11, 50° C. 15 min, vs Time 0.
Format: biochemical, Trichoderma atroviride
Set-up: Conc. FgenL#1 / Conc. FgenL#2: unit not given here
Summary of the method: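 Chi18 or FgenL model RNA at 50 ng/μL in 50 mM CAPS pH 11 was mixed with amino acids (stocks in CAPS, readjusted to >pH 11) and heated at 50° C for 0 or 15 minutes; time-0 samples stayed on ice. Intact RNA was measured by capillary electrophoresis with optical detection and compared with a no-degradation baseline.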

SMILES | % Control N = 1 [%] | % Control N = 2 [%]
CC[C@H](C)[C@H](N)C(=O)O [Isoleucine] | 12.2 | 9.5
CC(C)C[C@H](N)C(=O)O [Leucine] | 24.3 | 16.9
NCCCC[C@H](N)C(=O)O [Lysine] | 19.9 | 17.6
CSCC[C@H](N)C(=O)O [Methionine] | 35.4 | 32.6

Same assay, conditions: FgenL RNA, 20 mM amino acids, 50 mM CAPS pH 11, 50° C. 15 min, vs Time 0, Avg N=2

SMILES | % Control Average [%]
CC[C@H](C)[C@H](N)C(=O)O [Isoleucine] | 10.8
CC(C)C[C@H](N)C(=O)O [Leucine] | 20.6
NCCCC[C@H](N)C(=O)O [Lysine] | 18.7
CSCC[C@H](N)C(=O)O [Methionine] | 34.0

Same assay, conditions: intact FgenL RNA after 15 min at 50° C., 20 mM amino acids in 50 mM CAPS pH 11, run #1

SMILES | Conc. FgenL#1
CC[C@H](C)[C@H](N)C(=O)O [Isoleucine] | 4.22
CC(C)C[C@H](N)C(=O)O [Leucine] | 8.37
NCCCC[C@H](N)C(=O)O [Lysine] | 6.85
CSCC[C@H](N)C(=O)O [Methionine] | 12.2

Same assay, conditions: intact FgenL RNA after 15 min at 50° C., 20 mM amino acids in 50 mM CAPS pH 11, run #2

SMILES | Conc. FgenL#2
CC[C@H](C)[C@H](N)C(=O)O [Isoleucine] | 3.28
CC(C)C[C@H](N)C(=O)O [Leucine] | 5.85
NCCCC[C@H](N)C(=O)O [Lysine] | 6.12
CSCC[C@H](N)C(=O)O [Methionine] | 11.3

These compounds were tested on FgenL mRNA construct (assay: Size Exclusion Base Hydrolysis Degradation Assay, FgenL). Conditions: FgenL 0.1 mg/mL, 25 mM amino acid, 50 mM CAPS, T=0, replicate 1.
Format: biochemical, Trichoderma atroviride
Description: (§1) Basic assay procedure: RNA samples were diluted to 1.0 mg/mL in DNAase/RNAase free water. Amino acids were dissolved in water to a stock solution of 100 mM and a solution of 500 mM CAPS pH 11 was used. The two mRNA constructs tested were FgenL and Chi18. Each individual sample volume was 50 μL. To determine the amount of 1 M NaOH needed to adjust the final pH to 11.0 after the addition of all sample components, the sample volume was increased 100 fold (5 mL), the volume of 1 M NaOH recorded and this value was translated back down to the 50 μL sample volume.
(§2) The mRNA and amino acid were allowed to incubate for one hour prior to the addition of CAPS pH 11. All steps of the assay were conducted at room temperature.
(§3) Degradation reaction: After the CAPS addition, the samples were injected onto the Waters H-Class UPLC system to record the first timepoint, T=O. This resulting chromatogram was processed by integrating the area of absorbance at 250 nm for the mRNA construct. Immediately following this timepoint, the pH was adjusted to 11. Subsequent time points (2 hrs, 10 hrs, and 24 hrs) recorded the Absorbance Units (peak area) at 250 nm as a percentage of the peak area determined at T=O. Integration of the chromatogram for subsequent timepoints was conducted by analyzing the area of absorbance at 250 nm contained within the same time window in which the peak eluted in T=0 for the 100% intact mRNA.

SMILES | T0 R1 peak area at 250 nm
CC[C@H](C)[C@H](N)C(=O)O [Isoleucine] | 14903
CC(C)C[C@H](N)C(=O)O [Leucine] | 13599
NCCCC[C@H](N)C(=O)O [Lysine] | 17400
CSCC[C@H](N)C(=O)O [Methionine] | 15213

Same assay, conditions: FgenL, 25 mM amino acid, 50 mM CAPS pH 11, room temperature, 2 hrs

SMILES | T2 Avg, peak area as percentage of T=0 [%]
CC[C@H](C)[C@H](N)C(=O)O [Isoleucine] | 7.2
CC(C)C[C@H](N)C(=O)O [Leucine] | 27.3
NCCCC[C@H](N)C(=O)O [Lysine] | 0.0
CSCC[C@H](N)C(=O)O [Methionine] | 24.2

Same assay, conditions: FgenL, 25 mM amino acid, 50 mM CAPS pH 11, room temperature, 2 hrs, replicate 1

SMILES | T2 R1 peak area at 250 nm
CC[C@H](C)[C@H](N)C(=O)O [Isoleucine] | 1687
CC(C)C[C@H](N)C(=O)O [Leucine] | 4569
NCCCC[C@H](N)C(=O)O [Lysine] | 0
CSCC[C@H](N)C(=O)O [Methionine] | 3658

Same assay, conditions: FgenL, 25 mM amino acid, 50 mM CAPS pH 11, room temperature, 10 hrs

SMILES | T10 Avg, peak area as percentage of T=0 [%]
CC[C@H](C)[C@H](N)C(=O)O [Isoleucine] | 0.0
CC(C)C[C@H](N)C(=O)O [Leucine] | 0.0
NCCCC[C@H](N)C(=O)O [Lysine] | 0.0
CSCC[C@H](N)C(=O)O [Methionine] | 0.0

Same assay, conditions: FgenL, 25 mM amino acid, 50 mM CAPS pH 11, room temperature, 10 hrs, replicate 1

SMILES | T10 R1 peak area at 250 nm
CC[C@H](C)[C@H](N)C(=O)O [Isoleucine] | 0
CC(C)C[C@H](N)C(=O)O [Leucine] | 0
NCCCC[C@H](N)C(=O)O [Lysine] | 0
CSCC[C@H](N)C(=O)O [Methionine] | 0

Same assay, conditions: FgenL, 25 mM amino acid, 50 mM CAPS pH 11, room temperature, 24 hrs

SMILES | T24 Avg, peak area as percentage of T=0 [%]
CC[C@H](C)[C@H](N)C(=O)O [Isoleucine] | 0.0
CC(C)C[C@H](N)C(=O)O [Leucine] | 0.0
NCCCC[C@H](N)C(=O)O [Lysine] | 0.0
CSCC[C@H](N)C(=O)O [Methionine] | 0.0

Same assay, conditions: FgenL, 25 mM amino acid, 50 mM CAPS pH 11, room temperature, 24 hrs, replicate 1

SMILES | T24 R1 peak area at 250 nm
CC[C@H](C)[C@H](N)C(=O)O [Isoleucine] | 0
CC(C)C[C@H](N)C(=O)O [Leucine] | 0
NCCCC[C@H](N)C(=O)O [Lysine] | 0
CSCC[C@H](N)C(=O)O [Methionine] | 0

Same assay, conditions: FgenL, 25 mM amino acid, T=0 (reference)

SMILES | T0 Avg, peak area as percentage of T=0 [%]
CC[C@H](C)[C@H](N)C(=O)O [Isoleucine] | 100.0
CC(C)C[C@H](N)C(=O)O [Leucine] | 100.0
NCCCC[C@H](N)C(=O)O [Lysine] | 100.0
CSCC[C@H](N)C(=O)O [Methionine] | 100.0

The compounds below were run on Chi18 mRNA construct (assay: Size Exclusion Base Hydrolysis Degradation Assay, Chi18). Conditions: Chi18 0.1 mg/mL, 25 mM amino acid, 50 mM CAPS, T=0, replicate 1.
Format: biochemical, Trichoderma atroviride
Description: as §1, §2, §3

SMILES | T0 R1 peak area at 250 nm
CC[C@H](C)[C@H](N)C(=O)O [Isoleucine] | 15361
CC(C)C[C@H](N)C(=O)O [Leucine] | 43979
NCCCC[C@H](N)C(=O)O [Lysine] | 24122
CSCC[C@H](N)C(=O)O [Methionine] | 17259

Same assay, conditions: Chi18, 25 mM amino acid, 50 mM CAPS pH 11, room temperature, 2 hrs

SMILES | T2 Avg, peak area as percentage of T=0 [%]
CC[C@H](C)[C@H](N)C(=O)O [Isoleucine] | 63.2
CC(C)C[C@H](N)C(=O)O [Leucine] | 60.6
NCCCC[C@H](N)C(=O)O [Lysine] | 0.0
CSCC[C@H](N)C(=O)O [Methionine] | 63.5

Same assay, conditions: Chi18, 25 mM amino acid, 50 mM CAPS pH 11, room temperature, 2 hrs, replicate 1

SMILES | T2 R1 peak area at 250 nm
CC[C@H](C)[C@H](N)C(=O)O [Isoleucine] | 7533
CC(C)C[C@H](N)C(=O)O [Leucine] | 23370
NCCCC[C@H](N)C(=O)O [Lysine] | 0
CSCC[C@H](N)C(=O)O [Methionine] | 8392

Same assay, conditions: Chi18, 25 mM amino acid, 50 mM CAPS pH 11, room temperature, 10 hrs

SMILES | T10 Avg, peak area as percentage of T=0 [%]
CC[C@H](C)[C@H](N)C(=O)O [Isoleucine] | 33.8
CC(C)C[C@H](N)C(=O)O [Leucine] | 26.2
NCCCC[C@H](N)C(=O)O [Lysine] | 0.0
CSCC[C@H](N)C(=O)O [Methionine] | 40.1

Same assay, conditions: Chi18, 25 mM amino acid, 50 mM CAPS pH 11, room temperature, 10 hrs, replicate 1

SMILES | T10 R1 peak area at 250 nm
CC[C@H](C)[C@H](N)C(=O)O [Isoleucine] | 4699
CC(C)C[C@H](N)C(=O)O [Leucine] | 10474
NCCCC[C@H](N)C(=O)O [Lysine] | 0
CSCC[C@H](N)C(=O)O [Methionine] | 6837

Same assay, conditions: Chi18, 25 mM amino acid, 50 mM CAPS pH 11, room temperature, 24 hrs

SMILES | T24 Avg, peak area as percentage of T=0 [%]
CC[C@H](C)[C@H](N)C(=O)O [Isoleucine] | 0.0
CC(C)C[C@H](N)C(=O)O [Leucine] | 0.0
NCCCC[C@H](N)C(=O)O [Lysine] | 0.0
CSCC[C@H](N)C(=O)O [Methionine] | 0.0

Same assay, conditions: Chi18, 25 mM amino acid, 50 mM CAPS pH 11, room temperature, 24 hrs, replicate 1

SMILES | T24 R1 peak area at 250 nm
CC[C@H](C)[C@H](N)C(=O)O [Isoleucine] | 0
CC(C)C[C@H](N)C(=O)O [Leucine] | 0
NCCCC[C@H](N)C(=O)O [Lysine] | 0
CSCC[C@H](N)C(=O)O [Methionine] | 0

Same assay, conditions: Chi18, 25 mM amino acid, T=0 (reference)

SMILES | T0 Avg, peak area as percentage of T=0 [%]
CC[C@H](C)[C@H](N)C(=O)O [Isoleucine] | 100.0
CC(C)C[C@H](N)C(=O)O [Leucine] | 100.0
NCCCC[C@H](N)C(=O)O [Lysine] | 100.0
CSCC[C@H](N)C(=O)O [Methionine] | 100.0

Each compound was assayed against Chi18 model RNA (assay: Droplet Digital Polymerase Chain Reaction (ddPCR) Assay, Chi18). Conditions: percent protection, pH 11.0, 30° C., 16 hours, n = 2.
Format: biochemical, Trichoderma atroviride
Summary of the method: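 Chi18 (25 fg/μL) or FgenL (10 fg/μL) RNA at pH 11.0 incubated 16 h with amino acids (10-point half-log series, ~300 mM top stock in CAPS), at 30° C or 44° C respectively. Intact RNA reverse-transcribed, ddPCR 5′-positive droplet fraction taken as protection; EC50 from four-parameter logistic fit.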

SMILES | EC50 [mM]
CC[C@H](C)[C@H](N)C(=O)O [Isoleucine] | > 19
CC(C)C[C@H](N)C(=O)O [Leucine] | > 25
NCCCC[C@H](N)C(=O)O [Lysine] | > 30
CSCC[C@H](N)C(=O)O [Methionine] | > 30

What follows are compounds tested on FgenL model RNA (assay: not given). Conditions: percent protection, pH 11.0, 44° C., 16 hours, n = 2.
Format: biochemical, Trichoderma atroviride

SMILES | EC50 [mM]
CC[C@H](C)[C@H](N)C(=O)O [Isoleucine] | > 30
CC(C)C[C@H](N)C(=O)O [Leucine] | > 30
NCCCC[C@H](N)C(=O)O [Lysine] | > 30
CSCC[C@H](N)C(=O)O [Methionine] | > 30
